The source of these data is patent US6893659B2, “Pharmaceutical composition for oral administration of a N-piperidino-3- pyrazolecarboxamide derivative, its salts and their solvates” (Sanoti-Synthelabo, priority 1997, dated 2005).

A short description of series [1]: Instantaneous solubility of the compounds of formula (I) in aqueous media. Type of series: physicochemical. Conditions: for Solubility, dissolution medium Acetic buffer pH 7.5 / Solubility, dissolution medium Phosphate buffer pH 7.5 / Solubility, dissolution medium Water / Solubility, dissolution medium Water + 10% ethanol: instantaneous solubility, room temperature. Here is the method:
(§1) Furthermore, the hydrophobic character of the compounds of formula (I) is very strongly pronounced. […] These compounds are soluble in alcohols and glycols and more particularly in polyethylene glycols (PEG).
The solubilities of the compounds of formula (I) are measured in different aqueous media. The instantaneous solubility is evaluated at room temperature by quantitative analysis. The results, expressed in μg per ml, are collated in Table 1 below: […]

The nature of series [2]: Solubility of compound A in solvents and after dilution of the solutions in water. Type of series: physicochemical. Conditions: for solubility: organic solvent or mixture. On the procedure: as §1
However, when the solutions obtained with an alcohol or a glycol are diluted in an aqueous medium, the compound of formula (I) precipitates because of its strongly hydrophobic character.
Measurements were also made of the solubility of compound A in different solvents (Table 2) and after dilution in water of the solutions formed (Table 3).

Series [3] can be described thus: Wettability by H. Mohamad's method. Type of series: physicochemical.
Source text: as §1
The wettability of compound A was studied in different formulations using the method of H. Mohamad et al., Labo Pharma. Problèmes techniques, 1984, 32 (346), 284-289.

Series [4] can be described thus: Kinetics of dissolution in a gastric medium. Type of series: physicochemical. The note with it: 40 mg in one liter, phosphate-citrate buffer pH 3, 37° C., no surfactant. Here is the method: The kinetics of dissolution of different formulations in a gastric medium were studied at 37° C. in a phosphate-citrate buffer of pH 3 for 30 minutes. […]
6 tests were carried out for each formulation and the amount of compound A dissolved in the medium was measured every 5 minutes.
Table 7 indicates the mean value of the percentage of compound A dissolved and the standard deviation relative to this value for the different formulations described in Table 6.

A short description of series [5]: Intestinal transepithelial passage across Caco-2 monolayer. The format is in vitro ADME. Conditions: human, Caco-2; introduced in Hank's medium pH 6.5, in solution in DMSO; apical to basal; read-out: Coefficient of permeability P. On the procedure: (§2) The permeability of the epithelium of the compounds is evaluated using the Caco-2 cell line, which has the characteristic of undergoing differentiation in vitro to form an epithelial monolayer (Crit. Rev. Ther. Drug Carrier System, 1991, 8 (4), 105-330). In this model the permeability of compound A dissolved in dimethyl sulfoxide (DMSO) is high, showing that it has a good ability to be absorbed by the intestine when it is in solution.
(§3) Caco-2 cells are cultured onto microporous polycarbonate filters covered with collagen. The cellular monolayer formed on the filter then makes it possible to separate an apical compartment (imitating the intestinal lumen) from a basal compartment (imitating the blood circulation).
(§4) The composition containing the compound to be studied is placed on the apical side and the passage of this compound, dispersed or solubilized in Hank's medium, through this cellular barrier is evaluated by measuring the kinetics of its appearance on the basal side. This aqueous medium, of pH 6.5, has the following composition: NaCl=8.0 g/l; KCl=0.4 g/l; CaCl2=0.19 g/l; MgCl2=0.1 g/l; MgSO4=0.1 g/l; Na2HPO4=0.09 g/l; KH2PO4=0.06 g/l; NaHCO3=0.35 g/l; glucose=1 g/l; phenol red=0.01 g/l.
(§5) The coefficient of permeability P, in cm/s, is then determined; this characterizes the rate of passage of the molecule through the membrane, namely: P=(da/dt).(1/A.Co) • where: • da/dt=variation of the amount of test compound passing through the cellular monolayer as a function of time (mol/s) • A=surface area of the monolayer (cm^2) • Co=initial concentration of the test compound (mol/l)
(In general: Caco-2 cells form a polarised layer with tight junctions and transporters.)

A further series relates to Caco-2 cells. The description is as above. The format is in vitro ADME. On the procedure:
as §2, §3, §4, §5

The mark [6] stands for this setting: ethanol solution, dilution in water 10%.
[7] abbreviates: polyethylene glycol 400 solution, dilution in water 30%.

Values after ≈ are worked out from the molar mass of the structure shown. Where a name gives a salt, the structure may show the parent alone.

The term solubility denotes how much of the substance goes into solution per volume.

Take `Cc1c(C(=O)NN2CCCCC2)nn(-c2ccc(Cl)cc2Cl)c1-c1ccc(Cl)cc1` [Hydrochloride (solvated)]: in series [1], the “Solubility, dissolution medium Acetic buffer pH 7.5” value stood at 54 μg per ml; the “Solubility, dissolution medium Phosphate buffer pH 7.5” value worked out at 0.5 μg per ml; the “Solubility, dissolution medium Water + 10% ethanol” value is recorded as 10 μg per ml. Further, the “Solubility, dissolution medium Water” value in series [1] (water) was 37 μg per ml.
For the compound `Cc1c(C(=O)NN2CCCCC2)nn(-c2ccc(Cl)cc2Cl)c1-c1ccc(Cl)cc1` [Hydrogensulfate], in series [1], the “Solubility, dissolution medium Acetic buffer pH 7.5” value came to 30 μg per ml; the “Solubility, dissolution medium Phosphate buffer pH 7.5” value was 0.9 μg per ml; the “Solubility, dissolution medium Water + 10% ethanol” value came out at 38 μg per ml. Besides, the “Solubility, dissolution medium Water” value in series [1] (water) amounted to 13 μg per ml.
Regarding `Cc1c(C(=O)NN2CCCCC2)nn(-c2ccc(Cl)cc2Cl)c1-c1ccc(Cl)cc1` [Methanesulfonate (solvated)], the “Solubility, dissolution medium Water” value in series [1] (water) was found to be 39 μg per ml. Besides, the “Solubility, dissolution medium Water + 10% ethanol” value in series [1] worked out at 48 μg per ml.
With `Cc1c(C(=O)NN2CCCCC2)nn(-c2ccc(Cl)cc2Cl)c1-c1ccc(Cl)cc1` [Paratoluenesulfonate], in series [1], the “Solubility, dissolution medium Acetic buffer pH 7.5” value amounted to 2.4 μg per ml; the “Solubility, dissolution medium Phosphate buffer pH 7.5” value amounted to 0.2 μg per ml; the “Solubility, dissolution medium Water + 10% ethanol” value is given as 7.3 μg per ml. The “Solubility, dissolution medium Water” value in series [1] (water) came out at 3.9 μg per ml.
The corresponding values for `Cc1c(C(=O)NN2CCCCC2)nn(-c2ccc(Cl)cc2Cl)c1-c1ccc(Cl)cc1` [Phosphate] are 0.9 μg per ml, 0.7 μg per ml, 7.5 μg per ml and 1.3 μg per ml.
With `Cc1c(C(=O)NN2CCCCC2)nn(-c2ccc(Cl)cc2Cl)c1-c1ccc(Cl)cc1` [Solvated compound A], in series [1], the “Solubility, dissolution medium Acetic buffer pH 7.5” value came out at 1.2 μg per ml and the “Solubility, dissolution medium Water + 10% ethanol” value came out at 0.9 μg per ml. For the same compound, the “Solubility, dissolution medium Water” value in series [1] (water) is 0.7 μg per ml.
Regarding `Cc1c(C(=O)NN2CCCCC2)nn(-c2ccc(Cl)cc2Cl)c1-c1ccc(Cl)cc1` [compound A, N-Piperidino-5-(4-chlorophenyl)-1-(2,4-dichlorophenyl)-4-methylpyrazole-3-carboxamide], the “Amount of compound A dissolved, measured” value was 1.2.10^−3 mg/ml in series [2] (setting [6]) and 3 µg/mL in series [2] (setting [7]). Further, the “Amount of compound A dissolved, theoretical” value in series [2] (setting [6]) came to 3.5 mg/mL; in series [2] (setting [7]) it was 15 mg/mL. In addition, the solubility in series [2] (solvent Ethanol) stood at 35 mg/mL (≈ 75.5 mM); in series [2] (solvent Polyethylene glycol 400) it was 50 mg/mL (≈ 108 mM). For the same compound, the Dilution in water entry in series [2] (solution in polyethylene glycol 1500 at 60° C.) is on record as “not dilutable”. In addition, in series [2] (solvent Polyethylene glycol 1500 at 60° C.), the “Solubility of compound A” value turned out to be 80 mg/g. The “Solubility, dissolution medium Water + 10% ethanol” value in series [1] (listed as Compound A (base)) was found to be 1.2 μg per ml. Besides, in series [1] (water, irrespective of the pH), the “Solubility in water (in words)” value is “practically insoluble”. Besides, the “Wettability in water (in words)” value in series [3] is listed as “not wettable”. The “Dissolution in the dissolution medium with nothing else added” value in series [4] is on record as “no dissolution takes place”. For the same compound, in series [5], the Papp A→B was 9.6 ×10⁻⁶ cm/s. Also, the “Relative rate of passage” value with Caco-2 cells (Caco-2 monolayer, Hank's medium pH 6.5, relative to compound A in suspension in Hank's medium (=1)) turned out to be 1. Moreover, in the series with Caco-2 cells (compound dissolved in DMSO), the “Permeability / ability to pass through the epithelium (in words)” value was “very good ability and high”.
